The nature of data set [1]: Isoelectric point by isoelectric focusing. The format is physicochemical. The method, then:
After staining, the migration distance from the cathodic edge of the gel to the different protein bands was measured. The pI of each unknown was determined by using a standard curve generated by a plot of the migration distance of standards versus the corresponding pI's. […] (Tenstad et al., 1994, Acta Physiol. Scand. 152: 33-50).

Data set [2] deals with bovine pancreatic kallikrein. Briefly: Inhibition of bovine pancreatic kallikrein, Ki. The class given is biochemical. The following applies: Table 4A; Bovine Pancreatic Kallikrein (92.0 pM). The method, then:
After 5 min. at 37° C., 15 μl of 2 mM GPK-AMC was added and the change in fluorescence (as above) was monitored. […] After 5 min. incubation at 37° C., 25 μl of 20 mM GPK-AMC was added and the change in fluorescence monitored. […] After 5 min. at 37° C. 15 μl of 20 mM PFR-AMC was added and the change in fluorescence monitored.

The target in data set [3] is T1, human neutrophil elastase (Homo sapiens, UniProt P08246).
T1 sequence (P08246 30-267): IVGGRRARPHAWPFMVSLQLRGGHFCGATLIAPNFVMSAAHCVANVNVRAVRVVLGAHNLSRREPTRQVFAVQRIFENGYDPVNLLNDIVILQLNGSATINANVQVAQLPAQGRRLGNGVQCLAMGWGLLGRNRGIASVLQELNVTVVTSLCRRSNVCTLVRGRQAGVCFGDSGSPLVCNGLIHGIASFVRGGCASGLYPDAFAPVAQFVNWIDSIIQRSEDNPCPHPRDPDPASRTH
Briefly: Inhibition of human neutrophil elastase, Ki (Dixon plots). The format is biochemical. Particulars: Table 4A; elastase. The method, then:
[…] Ki values were determined from Dixon plots of the form 1/V versus performed at two different substrate concentrations (Dixon et al., 1979).

Drawing on patent publication US20070086956A1, “Method for accelerating the rate of mucociliary clearance” (BAYER AKTIENGESELLSCHAFT, priority 1998, published 2007), this text covers pI and Ki for one molecule.

The Ki is a dissociation constant, usually derived from enzyme kinetics or from competition with a known ligand.

Take `CC[C@H](C)[C@H](N)C(=O)N[C@@H](Cc1c[nH]cn1)C(=O)N[C@@H](CC(=O)O)C(=O)N[C@@H](Cc1ccccc1)C(=O)N[C@H]1CSSC[C@@H](C(=O)N[C@@H](C)C(=O)N[C@H](C(=O)N[C@H](C(=O)O)C(C)C)[C@@H](C)O)NC(=O)[C@H](CCCCN)NC(=O)[C@H](CCCCN)NC(=O)[C@H](CC(C)C)NC(=O)[C@@H]2CSSC[C@@H]3NC(=O)[C@H](CO)NC(=O)CNC(=O)[C@H](CC(=O)O)NC(=O)[C@H]([C@@H](C)O)NC(=O)[C@H](C(C)C)NC(=O)[C@H](CC(N)=O)NC(=O)[C@H](Cc4ccc(O)cc4)NC(=O)[C@H](Cc4c[nH]c5ccccc45)NC(=O)[C@H](Cc4c[nH]c5ccccc45)NC(=O)[C@H](CCCNC(=N)N)NC(=O)[C@@H]4CCCN4C(=O)[C@H](CCSC)NC(=O)[C@H](CO)NC(=O)[C@H](C)NC(=O)[C@H](CCCNC(=N)N)NC(=O)[C@H](CSSC[C@H](NC(=O)CNC(=O)CNC(=O)[C@H](Cc4ccc(O)cc4)NC(=O)[C@H](C(C)C)NC(=O)[C@H](Cc4ccccc4)NC(=O)[C@H](CC(C)C)NC(=O)[C@H](CCC(N)=O)NC3=O)C(=O)N[C@@H](CC(=O)O)C(=O)NCC(=O)N[C@@H](CC(N)=O)C(=O)N[C@@H](CO)C(=O)N[C@@H](CC(N)=O)C(=O)N[C@@H](CC(N)=O)C(=O)N[C@@H](Cc3ccc(O)cc3)C(=O)N[C@@H](CC(C)C)C(=O)N[C@@H]([C@@H](C)O)C(=O)N[C@@H](CCCCN)C(=O)N[C@@H](CCC(=O)O)C(=O)N[C@@H](CCC(=O)O)C(=O)N2)NC(=O)[C@H](CCCNC(=N)N)NC(=O)CNC(=O)[C@H](C(C)C)NC(=O)[C@H](C(C)C)NC(=O)[C@H](CCCCN)NC(=O)[C@H](CO)NC(=O)[C@H](C(C)C)NC(=O)[C@H](CC(C)C)NC1=O` [bikunin (7-64)]: the pI result was “much higher than the predicted value” in data set [1] (first preparation of bikunin (7-64) (possibly not completely deprotected), migrated to the cathodic edge of the gel (pH 9.5)) and 8.85 in data set [1] (refolded purified protein, Ampholine PAGplate (pH 3.5 to 9.5)). Also, the inhibition constant Ki in data set [2] was 0.4 nM; in data set [3], more than 100 nM.
